Data set [1] can be described thus: Pharmacokinetics of the drug after single oral dose (volume of distribution, half lives). It is filed as in vivo. The settings on record: for half-life: human, plasma, oral. The protocol:
In this case, the drug is eliminated rapidly from the plasma via distribution into other tissues as well as through metabolism and excretion into the urine. The rapid elimination makes it necessary to deliver the drug into the GI tract for extended periods of time, up to about 24 hours. It may also require that the drug be delivered in an ascending profile such as that shown in this FIG. 5. Such ascending profile may be accomplished by increasing the dose from an initial dose in two to five increments to achieve a desired maximum dose or by delivering a dosage form with an ascending profile for the initial two to five doses. Such doses may be delivered every 24 hours or every 12 hours.
A steady state plasma profile occurs after the administration of two to three doses. The achievement of steady state with the desirable Cmax/Cmin ratio after the administration of very few doses is advantageous in that therapeutic levels are achieved in a short time and maintained thereafter. Rapid attainment of steady state allows for faster increases or decreases in dose without unwanted side effects and the resultant titration to a therapeutically effective dose and, if necessary, withdrawal of therapy. The Cmax/Cmin ratio at steady state is less than 3, often less than 2, often less than 1.5 and between 1.0 and 2.

Data set [2] in a line: In vitro release rate (dissolution) from dosage forms, FIG. 3-5. It is filed as physicochemical. The protocol: By “dissolution rate” or “release rate” is intended the amount of active agent released in vitro from a dosage form per unit time into a release medium, usually in units of milligrams per hour (mg/hr). In vitro release rates are performed on dosage forms placed in metal coil sample holders attached to a USP Type VII bath indexer in a constant temperature water bath at 37° C. In addition, other appropriate dissolution test apparatuses may be suitable, such as, USP apparatus I or II. Aliquots of the release rate solutions are injected into a chromatographic system to quantify the amounts of drug released during each testing interval. According to the invention, between 2 and 50% of the dose is released following two hours after exposure of the dosage form to the environment of use. These dissolution rates may be between 2 and 60% or 10 and 50% within the first 4 hours, between about 20 and 80% or 35 and 70% from 4 hours to about 8 hours following exposure to the environment of use between about 35 and 95% or 45 and 85% from 8 hours to about 12 hours following exposure to the environment of use and greater than 50 to 80% or greater than 90% following 12 hours after exposure to the environment of use and greater than 90% following 22 hours after exposure to the environment of use.

Like-named read-outs stand apart in the source and are kept apart here. Where only a bound is given, the exact number is not on record here.

By half-life is commonly meant how long it takes for the measured level to halve.

For the molecule `Nc1cnc(-c2cc(Cl)cc(Cl)c2Cl)c(N)n1` [3-(2,3,5-trichloro-phenyl)-pyrazine-2,6-diamine], the values for the half-life in data set [1] (read-out: final half life of the drug) and in data set [1] (read-out: initial half life of the drug) were 10 to 13 h and < 5 h, respectively. Further, the “volume of distribution (Vd)” value in data set [1] (single oral dose) is recorded as “about 640 liters”. Also, the “period of release, controlled and increasing dose” value in data set [2] (ascending release profile, FIG. 5) is 24 h. In addition, the “period of release of active agent” value was “about 20 hours” in data set [2] (first-order release profile, FIG. 4) and “about 20 hours” in data set [2] (zero-order release profile, FIG. 3). The amount released in data set [2] (first-order release profile, after 11 hours, FIG. 4) was determined as 90%; in data set [2] (zero-order release profile, after 16 hours, FIG. 3), 90%.

Source of the values: patent US20060182805A1, “Dosage form and method for sustained release of substituted pyrazine compound” (Jazz Pharmaceuticals, priority 2005, published 2006).
